Assay results published in US11866460B2 (priority 2015, dated 2024).
Where no end group is shown, it is not given here.

How the values were obtained:
[1] = system: human erythrocyte cells
[2] = system: S. aureus (ATCC 25923); conditions: for MIC in PB: 10 mM potassium phosphate buffer, pH 7.2; for MIC in PBS: phosphate-buffered saline
[3] = system: CHIKV 181/25; conditions: for EC50: 0 h
[4] = system: DENV-1 PRS41393; conditions: for Therapeutic Index (CC50/EC50): -1 PRS41393; for EC50: -1 PRS41393, 0 h
[5] = system: DENV-2 New Guinea C; conditions: -2 New Guinea C; for EC50: 0 h
[6] = system: DENV-3 H87; conditions: for Therapeutic Index (CC50/EC50): -3 H87; for EC50: -3 H87, 0 h
[7] = system: DENV-4 H241; conditions: for Therapeutic Index (CC50/EC50): -4 H241; for EC50: -4 H241, 0 h
[8] = system: JEV 14-14-2
[9] = system: YFV 17D
[10] = in vitro; conditions: African green monkey
[11] = system: VEEV TC-83; conditions: 0 h
[12] = system: Vero cells; conditions: African green monkey
[13] = system: Ebola virus (EBOV)
[14] = system: Marburg virus (MARV)

| Sequence | MHC [1] [µM] | MIC in PB [2] [µM] | MIC in PBS [2] [µM] | Therapeutic Index (CC50/EC50) [3] | Therapeutic Index (CC50/EC50) [4] | EC50 [4] [µM] | Therapeutic Index (CC50/EC50) [5] | Therapeutic Index (CC50/EC50) [6] | EC50 [6] [µM] | Therapeutic Index (CC50/EC50) [7] | EC50 [7] [µM] | Therapeutic Index (CC50/EC50) [8] | Therapeutic Index (CC50/EC50) [9] | CC50 [10] [µM] | EC50 [11] [µM] | CC50 [12] [µM] | also measured |
| --- | --- | --- | --- | --- | --- | --- | --- | --- | --- | --- | --- | --- | --- | --- | --- | --- | --- |
| AGSWLRDIWTWLQSAL [TSG008] | 1.5 | 1.5 | 1.5 |  |  |  |  |  |  |  |  |  |  |  |  |  |  |
| GSSWLRDILTALQSLL [TSG007] | 1.5 | 1.5 | 1.5 |  |  |  |  |  |  |  |  |  |  |  |  |  |  |
| GSSWLRDIWTALQSWL [TSG006] | 3 | 1.5 | 1.5 | 5.07 | 12.03 | 1.56 | 26.04 | 11.71 | 1.63 | 11.63 | 2.11 | 10.71 | 22.09 | 14.9 |  |  |  |
| GSSWLRDIWTKLQSWL [TSG005] | 13 | 1.5 | 1.5 |  |  |  |  |  |  |  |  |  |  |  |  |  |  |
| GSSWLRDVWTKLQSWL [TSG004] | 50 | 1.5 | 1.5 | 14.89 | 13.45 | 6.24 | 18.29 | 18.64 |  | 15.88 | 6.5 | 24.46 | 14.33 | 111 | > 50 | 114 | EC50 [3]: 9.52 µM; EC50 [5]: 8.63 µM |
| GSSWLRDVWTWLQSAL [TSG003] | 50 | 1.5 | 1.5 | 17.72 | 11.46 | 6.12 | 22.33 | 22.33 |  | 20.23 |  |  | 18.05 | 24.5 | > 12.5 | 38.6 | EC50 ([8]; 0 h): 16.3 µM |
| GSSWLRDVWTWLQSKL [TSG002] | 50 | 1.5 | 1.5 | 4.73 | 10.41 |  | 9.60 | 6.09 | 5.09 | 8.58 |  | 6.72 | 7.40 |  | > 12.5 | 16.1 | EC50 [3]: 3.21 µM; EC50 [5]: 2.74 µM; EC50 [13]: 1.01 µM; EC50 [14]: 0.922 µM |
| SGSWLRDVWTWLQSKL [TSG001 L-isomer] |  |  |  |  |  |  |  |  |  |  |  |  |  |  |  | > 20 |  |
| SWLRDIWDWICEVLSDFK [C5A, reference compound] | 13 |  | >100 | 9.38 | 44.60 |  | 85.26 | 15.02 | 3.86 | 22.13 | 1.65 | 61.68 | 99.97 |  |  |  | EC50 [10]: 29 µM |
